# Data from ChEMBL document CHEMBL1201862, “PubChem BioAssay data set” (2004).
# Active and inactive are the calls of the source.
# What was measured:
# [1] = potency of ADAM10 substrate cleavage blockers – biochemical, QFRET, dose response (AID 743254);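 also: ADAM10 enzyme with the DM2 quenched FRET peptide as substrate; EDANS fluorescence gain as the protease cuts the substrate; inhibitor potency against ADAM10 proteolytic activity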
# [2] = target: Disintegrin and metalloproteinase domain-containing protein 17 (Homo sapiens, UniProt P78536); experiment: inhibition of ADAM17 substrate cleavage – biochemical, quenched FRET substrate, counter-screen for ADAM10 exosite inhibitor project, dose response (AID 743253)
# BJ [3] = experiment: BJ-TERT fibroblast viability loss – cell-based, RAS-independent, luminescence, dose response (AID 1933); type: functional; settings: Homo sapiens
# [4] = Luminescence Cell-Based Dose Response HTS to Identify Inhibitors of 5'UTR Stem-Loop Driven Prion Protein mRNA Translation in H4 Neuroglioblastoma Cells. [Related pubchem assays: 1827 (Project Summary), 1813 (Primary HTS)]; type: functional
# [5] = alpha-synuclein stem-loop luciferase translation blockers – H4 neuroglioma cells, luminescence, confirmation (AID 1988); type: functional, cell-based
# BJ [6] = experiment: cells; type: functional, cell-based; settings: Homo sapiens
# BJ [7] = experiment: BJ-TERT-LT-ST fibroblast viability loss – cell-based, RAS-independent, luminescence, dose response (AID 1935); type: functional; settings: Homo sapiens;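 also: BJ fibroblasts immortalized with TERT plus LT and ST oncogenes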
# [8] = DRD fibroblast viability loss – cell-based, non-viral oncogenic, luminescence, dose response (AID 1934); type: functional; settings: Homo sapiens
# HEK293 = experiment: EBV LMP1 TES2 canonical NF-kB signalling blockers – cell-based, HEK293, luciferase, cherry-pick, dose response (AID 588343); type: functional; settings: Homo sapiens
# cells [9] = type: functional, cell-based
# [10] = target: T1, Nuclear receptor subfamily 0 group B member 1 (Homo sapiens, UniProt P51843); type: functional, cell-based;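 also: HEK293T cells transfected with SF-1 and DAX-1 plus StAR promoter luciferase reporter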
# T1 sequence (P51843 whole entry): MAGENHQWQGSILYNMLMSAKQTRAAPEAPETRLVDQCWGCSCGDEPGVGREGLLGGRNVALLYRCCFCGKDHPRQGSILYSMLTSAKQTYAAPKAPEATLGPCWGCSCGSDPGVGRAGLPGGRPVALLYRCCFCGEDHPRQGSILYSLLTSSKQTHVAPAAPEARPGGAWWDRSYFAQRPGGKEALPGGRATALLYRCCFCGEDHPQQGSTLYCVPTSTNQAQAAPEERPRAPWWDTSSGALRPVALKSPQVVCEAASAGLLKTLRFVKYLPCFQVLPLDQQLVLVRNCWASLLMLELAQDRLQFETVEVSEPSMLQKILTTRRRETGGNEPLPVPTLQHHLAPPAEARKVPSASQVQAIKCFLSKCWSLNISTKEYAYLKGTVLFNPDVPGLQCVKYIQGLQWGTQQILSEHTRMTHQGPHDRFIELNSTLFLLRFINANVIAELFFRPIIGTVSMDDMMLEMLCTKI
# [11] = A549 cell cytotoxicity, dose response, cytotoxicity control, plate reader, cherry-pick, antagonist series (AID 743412); type: functional, cell-based
# [12] = toxicity toward HepG2 liver cells – cell-based, plate reader, cherry-pick, antagonist series, cytotoxicity control, dose response (AID 743416); type: functional
# [13] = blockers of bursicon-stimulated LGR2 cAMP reporter – cell-based, HEK293, CRE-luciferase reporter, cherry pick, set 2, dose response (AID 743343); type: functional;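 also: transfected cells were stimulated with diluted bursicon conditioned medium after compound addition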
# [14] = blockade of melanocortin 4 receptor signaling – cell-based, plate reader, cherry pick, counter-screen for LGR2 antagonist project, dose response (AID 743444); type: functional;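 also: transfected HEK 293 cells stimulated with alpha-MSH peptide; potency of inhibitors of the alpha-MSH evoked signal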
# [15] = viability loss in HEK293 cells – cell-based, plate reader, cherry-picked samples, cytotoxicity control, dose response (AID 743446); type: functional
# Mu-type opioid receptor = Mu-type opioid receptor (Homo sapiens, UniProt P35372); type: functional, cell-based;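 also: U2OS cells with beta-arrestin recruitment to OPRM1 by beta-gal complementation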
# [16] = target: 5-hydroxytryptamine receptor 2A (Mus musculus, UniProt P35363); type: functional, cell-based;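 also: CHO-K1 cells with tagged receptor and beta-arrestin; agonist potency measured as compound-induced activation of the receptor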
# [17] = target: T2, Carboxy-terminal domain RNA polymerase II polypeptide A small phosphatase 1 (Homo sapiens, UniProt Q9GZU7); experiment: CTDSP1 inhibitors, concentration-response, biochemical, absorbance readout, ultra-high-throughput screen actives (AID 540297); type: functional
# T2 sequence (Q9GZU7 whole entry): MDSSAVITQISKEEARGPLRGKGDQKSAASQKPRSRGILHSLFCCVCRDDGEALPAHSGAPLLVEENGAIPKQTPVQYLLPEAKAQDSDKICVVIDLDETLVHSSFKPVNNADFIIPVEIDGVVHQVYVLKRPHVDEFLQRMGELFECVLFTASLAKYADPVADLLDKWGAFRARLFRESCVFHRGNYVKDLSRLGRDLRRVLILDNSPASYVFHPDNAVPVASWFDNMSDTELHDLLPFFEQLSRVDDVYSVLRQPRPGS
# [18] = target: T3, Tyrosine-protein phosphatase non-receptor type 11 (Homo sapiens, UniProt Q06124); experiment: PTPN11 enzyme inhibitors – biochemical, selectivity assay for STEP inhibitor project, dose response (AID 602367); type: functional; settings: read-out: IC50_Mean
# T3 sequence (Q06124 whole entry): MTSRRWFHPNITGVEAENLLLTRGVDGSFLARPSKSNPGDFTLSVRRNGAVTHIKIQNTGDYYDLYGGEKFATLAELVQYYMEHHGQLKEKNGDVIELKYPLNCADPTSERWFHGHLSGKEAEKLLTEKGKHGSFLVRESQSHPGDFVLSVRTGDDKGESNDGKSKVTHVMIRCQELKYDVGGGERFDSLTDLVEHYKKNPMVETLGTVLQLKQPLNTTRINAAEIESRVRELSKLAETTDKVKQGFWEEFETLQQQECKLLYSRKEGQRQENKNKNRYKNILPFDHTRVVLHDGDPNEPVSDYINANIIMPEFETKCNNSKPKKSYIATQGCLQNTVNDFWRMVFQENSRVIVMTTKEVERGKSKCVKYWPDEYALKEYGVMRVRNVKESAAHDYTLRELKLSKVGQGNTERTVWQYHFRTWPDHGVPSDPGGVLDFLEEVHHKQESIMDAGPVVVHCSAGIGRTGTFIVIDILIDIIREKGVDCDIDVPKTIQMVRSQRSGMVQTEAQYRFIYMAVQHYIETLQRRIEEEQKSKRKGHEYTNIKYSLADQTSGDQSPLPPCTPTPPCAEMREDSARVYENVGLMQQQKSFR
# [19] = target: T4, Tyrosine-protein phosphatase non-receptor type 5 (Homo sapiens, UniProt P54829); experiment: PTPN5 enzyme inhibition – biochemical, fluorescence intensity, uHTS hits, confirmation (AID 602372); type: functional; settings: read-out: IC50_Mean
# T4 sequence (P54829 whole entry): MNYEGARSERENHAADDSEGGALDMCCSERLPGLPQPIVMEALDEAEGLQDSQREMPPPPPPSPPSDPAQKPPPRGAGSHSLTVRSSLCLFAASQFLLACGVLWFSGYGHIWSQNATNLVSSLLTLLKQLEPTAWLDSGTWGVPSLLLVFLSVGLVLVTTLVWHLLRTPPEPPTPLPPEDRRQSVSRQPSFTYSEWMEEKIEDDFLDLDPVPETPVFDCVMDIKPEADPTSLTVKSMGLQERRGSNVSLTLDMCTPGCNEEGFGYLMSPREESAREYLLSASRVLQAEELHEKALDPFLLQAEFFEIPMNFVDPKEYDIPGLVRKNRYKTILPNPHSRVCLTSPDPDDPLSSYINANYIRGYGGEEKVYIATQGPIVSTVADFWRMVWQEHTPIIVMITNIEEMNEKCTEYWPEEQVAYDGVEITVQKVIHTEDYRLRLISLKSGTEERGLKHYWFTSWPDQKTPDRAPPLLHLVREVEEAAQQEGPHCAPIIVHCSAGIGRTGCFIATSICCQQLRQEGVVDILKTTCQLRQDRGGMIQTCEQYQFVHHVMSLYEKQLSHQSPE
# [20] = target: Dual specificity protein phosphatase 3 (Homo sapiens, UniProt P51452); experiment: VHR phosphatase inhibition, dose response, selectivity assay for STEP inhibitor project, biochemical (AID 602374); type: functional; settings: read-out: IC50_Mean
# [21] = target: T5, Low molecular weight phosphotyrosine protein phosphatase (Homo sapiens, UniProt P24666); type: functional; settings: read-out: IC50_Mean
# T5 sequence (P24666 whole entry): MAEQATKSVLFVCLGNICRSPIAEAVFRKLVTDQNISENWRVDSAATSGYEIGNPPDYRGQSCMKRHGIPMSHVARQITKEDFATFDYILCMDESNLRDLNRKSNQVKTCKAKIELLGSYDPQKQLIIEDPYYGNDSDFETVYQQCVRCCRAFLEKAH
# [22] = target: T5, Low molecular weight phosphotyrosine protein phosphatase; type: functional; settings: read-out: IC50_Mean; remark: listed apart in the source
# [23] = Luminescence Cell-Based Dose Retest to Confirm Inhibitors of Cancer Stem Cells. [Related pubchem assays (depositor defined):AID2717, AID2721]; type: functional; settings: Homo sapiens
# cells [24] = type: functional, cell-based; remark: listed apart in the source
# [25] = target: T6, Trace amine-associated receptor 1 (Homo sapiens, UniProt Q96RJ0); experiment: Fluorescence-based cell-based high throughput dose response assay to identify agonists of the human trace amine associated receptor 1 (TAAR1).; type: functional
# T6 sequence (Q96RJ0 whole entry): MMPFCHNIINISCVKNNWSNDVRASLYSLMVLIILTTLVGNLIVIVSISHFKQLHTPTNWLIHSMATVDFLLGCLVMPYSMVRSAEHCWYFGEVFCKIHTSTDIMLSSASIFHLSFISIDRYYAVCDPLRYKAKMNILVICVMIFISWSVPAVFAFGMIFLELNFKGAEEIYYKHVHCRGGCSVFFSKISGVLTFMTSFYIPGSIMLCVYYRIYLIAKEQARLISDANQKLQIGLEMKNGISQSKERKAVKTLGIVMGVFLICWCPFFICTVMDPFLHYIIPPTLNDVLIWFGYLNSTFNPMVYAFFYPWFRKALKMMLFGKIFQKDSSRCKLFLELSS
# [26] = target: T6, Trace amine-associated receptor 1; experiment: Counterscreen for agonists of the human trace amine associated receptor 1 (hTAAR1): Fluorescence-based cell-based high throughput dose response assay to identify hTAAR1 agonist that also desensitize TAAR1 receptor response.; type: functional
# cells [27] = type: functional, cell-based; remark: listed apart in the source
# [28] = target: T7, Long-chain-fatty-acid--AMP ligase FadD28 (Mycobacterium tuberculosis, UniProt P9WQ59); experiment: Fluorescence polarization aasay to screen for inhibitors that compete for the binding of FadD28 to a bisubstrate Measured in Biochemical System Using Plate Reader - 2147-01_Inhibitor_Dose_CherryPick_Activity.; type: functional, Mycobacterium tuberculosis H37Rv
# T7 sequence (P9WQ59 whole entry): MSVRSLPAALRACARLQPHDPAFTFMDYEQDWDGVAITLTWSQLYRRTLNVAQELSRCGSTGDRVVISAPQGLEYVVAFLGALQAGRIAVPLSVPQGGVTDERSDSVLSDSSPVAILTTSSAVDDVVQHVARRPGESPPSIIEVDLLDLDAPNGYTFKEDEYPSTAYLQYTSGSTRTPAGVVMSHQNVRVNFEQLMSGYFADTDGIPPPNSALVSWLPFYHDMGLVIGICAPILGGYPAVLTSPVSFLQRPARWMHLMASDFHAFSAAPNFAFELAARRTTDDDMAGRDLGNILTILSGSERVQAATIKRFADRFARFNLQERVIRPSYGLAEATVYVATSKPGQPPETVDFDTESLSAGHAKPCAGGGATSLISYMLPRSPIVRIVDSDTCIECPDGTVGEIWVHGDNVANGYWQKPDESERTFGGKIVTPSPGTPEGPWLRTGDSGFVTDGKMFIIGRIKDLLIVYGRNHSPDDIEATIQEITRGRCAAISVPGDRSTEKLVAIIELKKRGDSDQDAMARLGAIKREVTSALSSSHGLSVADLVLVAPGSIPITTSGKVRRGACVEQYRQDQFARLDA
# Chain of Dual specificity protein phosphatase 3 (P51452 whole entry): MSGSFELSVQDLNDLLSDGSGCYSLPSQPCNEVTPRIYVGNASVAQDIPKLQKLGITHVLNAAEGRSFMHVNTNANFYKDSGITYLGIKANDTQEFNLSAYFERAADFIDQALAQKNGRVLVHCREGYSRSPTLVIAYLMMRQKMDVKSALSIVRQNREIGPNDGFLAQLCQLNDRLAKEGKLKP
# Chain of 5-hydroxytryptamine receptor 2A (P35363 whole entry, the tested form may be a part): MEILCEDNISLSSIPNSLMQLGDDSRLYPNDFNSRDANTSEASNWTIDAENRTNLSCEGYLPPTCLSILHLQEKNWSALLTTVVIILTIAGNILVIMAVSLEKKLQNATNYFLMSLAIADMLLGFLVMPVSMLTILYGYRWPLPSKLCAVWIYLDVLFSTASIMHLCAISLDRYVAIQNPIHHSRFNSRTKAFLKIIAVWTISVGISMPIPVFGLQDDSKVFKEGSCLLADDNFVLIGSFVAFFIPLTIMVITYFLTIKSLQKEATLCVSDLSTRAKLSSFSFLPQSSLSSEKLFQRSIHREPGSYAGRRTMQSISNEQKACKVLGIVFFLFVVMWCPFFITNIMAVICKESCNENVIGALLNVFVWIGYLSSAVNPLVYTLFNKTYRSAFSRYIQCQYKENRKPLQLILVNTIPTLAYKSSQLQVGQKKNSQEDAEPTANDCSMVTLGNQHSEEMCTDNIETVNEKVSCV
# Chain of Disintegrin and metalloproteinase domain-containing protein 17 (P78536 whole entry, the tested form may be a part): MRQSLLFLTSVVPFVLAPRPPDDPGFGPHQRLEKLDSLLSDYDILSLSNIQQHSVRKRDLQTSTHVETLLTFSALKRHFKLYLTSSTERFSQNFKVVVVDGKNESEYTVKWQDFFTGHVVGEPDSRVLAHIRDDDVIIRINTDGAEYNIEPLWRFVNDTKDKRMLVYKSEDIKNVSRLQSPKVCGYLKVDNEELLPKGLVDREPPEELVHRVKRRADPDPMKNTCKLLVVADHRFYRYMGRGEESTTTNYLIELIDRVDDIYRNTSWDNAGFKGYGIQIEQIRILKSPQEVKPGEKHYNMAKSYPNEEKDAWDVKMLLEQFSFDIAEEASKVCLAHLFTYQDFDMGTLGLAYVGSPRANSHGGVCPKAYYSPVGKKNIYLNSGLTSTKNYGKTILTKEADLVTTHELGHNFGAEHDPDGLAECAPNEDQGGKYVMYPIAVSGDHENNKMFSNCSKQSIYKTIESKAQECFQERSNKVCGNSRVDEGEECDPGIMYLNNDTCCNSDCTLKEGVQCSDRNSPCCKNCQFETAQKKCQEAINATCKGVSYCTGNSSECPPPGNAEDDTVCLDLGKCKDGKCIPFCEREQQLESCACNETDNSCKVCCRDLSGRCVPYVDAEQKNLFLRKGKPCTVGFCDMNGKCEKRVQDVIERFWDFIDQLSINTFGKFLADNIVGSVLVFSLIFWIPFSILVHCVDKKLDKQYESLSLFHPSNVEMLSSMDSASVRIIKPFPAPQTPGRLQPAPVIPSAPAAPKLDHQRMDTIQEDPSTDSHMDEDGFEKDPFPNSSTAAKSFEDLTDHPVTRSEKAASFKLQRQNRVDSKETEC
# Chain of Mu-type opioid receptor (P35372 whole entry): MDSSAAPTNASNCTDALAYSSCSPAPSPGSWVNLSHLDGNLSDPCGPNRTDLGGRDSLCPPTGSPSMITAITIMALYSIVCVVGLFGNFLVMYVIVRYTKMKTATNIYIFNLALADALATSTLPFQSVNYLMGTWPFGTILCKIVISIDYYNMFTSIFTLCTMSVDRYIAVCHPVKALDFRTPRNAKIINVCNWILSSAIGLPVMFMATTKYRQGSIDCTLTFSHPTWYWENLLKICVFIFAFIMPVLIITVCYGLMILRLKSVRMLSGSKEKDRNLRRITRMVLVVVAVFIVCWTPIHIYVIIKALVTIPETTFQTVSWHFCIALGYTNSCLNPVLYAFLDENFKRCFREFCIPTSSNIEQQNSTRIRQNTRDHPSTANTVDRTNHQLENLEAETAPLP
smiles,measurement,setting,value
NS(=O)(=O)c1ccc(NCc2cc(Cl)ccc2OCc2ccccc2F)cc1,IC50,[1],10.9 µM (inactive)
same,IC50,[2],> 69.5 µM (inactive)
COc1ccc(-c2ccc(NC(=O)c3ccco3)cc2)nn1,EC50,BJ [3],5.74 µM (active)
same,EC50,[4],4.34 µM (active)
same,EC50,[5],5.37 µM (active)
same,EC50,BJ [6],10.1 µM (active)
same,EC50,BJ [7],21.8 µM (active)
same,EC50,[8],7.33 µM (active)
same,AC50,HEK293,1.51 µM (active)
same,IC50,cells [9],> 67.6 µM (inactive)
same,IC50,[10],> 67.6 µM (inactive)
same,AC50,[11],11.1 µM (active)
same,AC50,[12],15.2 µM (active)
same,AC50,[13],3.8 µM (active)
same,AC50,[14],3.59 µM (active)
same,AC50,[15],21.9 µM (active)
O=C(c1ccco1)N1CCN(Cc2ccc(F)cc2)CC1,EC50,Mu-type opioid receptor,92.5 µM (inactive)
same,EC50,[16],7.5 µM (active)
CCc1ccc(CN2CCN(C(=O)c3ccco3)CC2)cc1,EC50,Mu-type opioid receptor,92.5 µM (inactive)
same,EC50,[16],0.219 µM (active)
CCCCC(=O)Nc1ccc(C(=O)NNC(=O)c2ccc(C)c(Br)c2)cc1,IC50,[17],10.2 µM (active)
same,IC50,[18],3.17 µM (active)
same,IC50,[19],28 µM (inactive)
same,IC50,[20],4.58 µM (active)
same,IC50,[21],16.6 µM (active)
same,IC50,[22],17.2 µM (active)
Cc1ccc(S(=O)(=O)Nc2ccc(-c3nnc(SCc4ccccc4Cl)o3)cc2)cc1,AC50,[23],3.88 µM (active)
same,IC50,[1],> 69.5 µM (inactive)
same,IC50,[2],> 69.5 µM (inactive)
COc1ccc(CNCCc2ccccc2F)c(OC)c1C,IC50,cells [24],> 29.9 µM (inactive)
same,EC50,[25],0.498 µM (active)
same,IC50,[26],3.46 µM (active)
same,EC50,cells [27],> 29.9 µM (inactive)
O=C(COc1ccc(/C=N/NC(=O)c2ccccc2O)cc1)Nc1ccccc1,IC50,[17],5.32 µM (active)
same,IC50,[18],4.22 µM (active)
same,IC50,[19],11.7 µM (active)
same,IC50,[20],3.88 µM (active)
same,IC50,[21],16.4 µM (active)
same,IC50,[22],39.9 µM (inactive)
COC(=O)c1ccc(COc2ccc(/C=N/Nc3cccc(C(=O)O)c3)cc2)cc1,AC50,[28],48.9 µM (active)
CCCCCCCCN1C(=O)[C@@H](CC(=O)NCCc2ccccc2OC)C[C@@]2(C(=O)OC)C1=C[C@H](C(C)(C)C)O[C@@H]2C,IC50,cells [24],> 29.9 µM (inactive)
same,EC50,[25],5.23 µM (active)
same,IC50,[26],6.93 µM (active)
same,EC50,cells [27],> 29.9 µM (inactive)
O=C(NCCc1ccccc1)c1nc(C(F)(F)F)[nH]c1-c1ccccc1,IC50,cells [24],> 29.9 µM (inactive)
same,EC50,[25],4.78 µM (active)
same,IC50,[26],9.43 µM (active)
same,EC50,cells [27],> 29.9 µM (inactive)
COC(=O)Nc1nc2ccc(C(=O)c3cccs3)cc2[nH]1 [NOCODAZOLE],IC50,[10],> 0.833 µM (active)
